Data reported in ChEMBL document CHEMBL1129891, “Synthesis and cytotoxic activity of alkylidene- and alkyl-substituted camptothecins” (Bioorg Med Chem Lett, 1997).

Columns and labels:
DNA topoisomerase 1 = target: T1, DNA topoisomerase 1 (Homo sapiens, UniProt P11387); experiment: Concentration required to inhibit 50% relaxation of 250 ng of SV40 DNA obtained with 0.5 I.U topoisomerase I at 37 degrees C for 30 min
T1 sequence (P11387 whole entry): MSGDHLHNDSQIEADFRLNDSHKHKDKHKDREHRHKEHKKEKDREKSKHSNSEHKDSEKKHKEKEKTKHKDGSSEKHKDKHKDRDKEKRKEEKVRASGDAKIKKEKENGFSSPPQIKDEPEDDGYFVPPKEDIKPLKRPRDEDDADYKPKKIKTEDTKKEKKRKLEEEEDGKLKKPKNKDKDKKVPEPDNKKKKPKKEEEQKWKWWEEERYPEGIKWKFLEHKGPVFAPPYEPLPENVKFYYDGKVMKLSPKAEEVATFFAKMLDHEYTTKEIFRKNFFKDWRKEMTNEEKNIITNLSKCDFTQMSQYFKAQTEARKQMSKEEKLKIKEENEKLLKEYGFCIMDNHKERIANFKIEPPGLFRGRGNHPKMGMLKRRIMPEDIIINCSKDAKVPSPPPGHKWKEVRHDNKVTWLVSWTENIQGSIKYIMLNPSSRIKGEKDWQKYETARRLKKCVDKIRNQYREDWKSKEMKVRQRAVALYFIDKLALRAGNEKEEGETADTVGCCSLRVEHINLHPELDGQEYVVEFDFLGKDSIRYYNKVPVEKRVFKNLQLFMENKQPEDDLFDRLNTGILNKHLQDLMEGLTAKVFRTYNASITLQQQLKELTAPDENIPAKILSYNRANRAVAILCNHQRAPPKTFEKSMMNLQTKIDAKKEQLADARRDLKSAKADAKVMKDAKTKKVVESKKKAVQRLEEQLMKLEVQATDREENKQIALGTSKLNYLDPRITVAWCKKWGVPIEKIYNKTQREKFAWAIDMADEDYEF

L1210 = experiment: Concentration required to inhibit 50% of cell growth in L1210 murine leukemia cell line after 48 hr continuous treatment; format: functional, cell-based; conditions: Mus musculus, L1210, 48 h

With `CC[C@@]1(O)C(=O)OCc2c1cc1n(c2=O)Cc2cc3c(/C=C/c4ccccc4)cccc3nc2-1` the IC50 (DNA topoisomerase 1) was greater than 100000 nM and the IC50 (L1210) was 15.8 nM.

In the case of `CC[C@@]1(O)C(=O)OCc2c1cc1n(c2=O)Cc2cc3c(CCc4ccccc4)cccc3nc2-1`, the IC50 (DNA topoisomerase 1) is reported as greater than 100000 nM and the IC50 (L1210) is reported as 16.3 nM.

For `CC[C@@]1(O)C(=O)OCc2c1cc1n(c2=O)Cc2cc3c(/C=C/C(=O)OC)cccc3nc2-1`, the IC50 (DNA topoisomerase 1) was 6700 nM and the IC50 (L1210) was 7.6 nM.

For `C=Cc1cccc2nc3c(cc12)Cn1c-3cc2c(c1=O)COC(=O)[C@]2(O)CC`, the IC50 (DNA topoisomerase 1) was 4200 nM and the IC50 (L1210) was 7.5 nM.

In the case of `CC[C@@]1(O)C(=O)OCc2c1cc1n(c2=O)Cc2cc3c(CC(NC(C)=O)C(=O)OC)cccc3nc2-1` (some centres undefined), the IC50 (DNA topoisomerase 1) is reported as 11300 nM and the IC50 (L1210) is reported as 183 nM.

With `CC[C@@]1(O)C(=O)OCc2c1cc1n(c2=O)Cc2cc3c(CCC(=O)OC)cccc3nc2-1` the IC50 (DNA topoisomerase 1) was 41800 nM and the IC50 (L1210) was 6.2 nM.

For `CC[C@@]1(O)C(=O)OCc2c1cc1n(c2=O)Cc2cc3c(/C=C(\NC(C)=O)C(=O)OC)cccc3nc2-1`, the IC50 (DNA topoisomerase 1) was 31900 nM and the IC50 (L1210) was 1180 nM.

`CC[C@@]1(O)C(=O)OCc2c1cc1n(c2=O)Cc2cc3cc(/C=C/C(=O)OC)ccc3nc2-1` was tested, and the IC50 (DNA topoisomerase 1) was greater than 100000 nM and the IC50 (L1210) was 62.3 nM.

`CC[C@@]1(O)C(=O)OCc2c1cc1n(c2=O)Cc2cc3c(N)cccc3nc2-1` [9-AMINOCAMPTOTHECIN] gave an IC50 (DNA topoisomerase 1) of 1800 nM.

`CC[C@@]1(O)C(=O)OCc2c1cc1n(c2=O)Cc2cc3c(/C=C/C(N)=O)cccc3nc2-1` showed an IC50 (DNA topoisomerase 1) of 3200 nM and an IC50 (L1210) of 121 nM.
